Data taken from ChEMBL document CHEMBL5143570, “Development of naringenin-O-carbamate derivatives as multi-target-directed liagnds for the treatment of Alzheimer's disease” (Bioorg Med Chem Lett, 2022).
Calls of active or inactive are those of the source. No cut-off for these calls is given here.

Key:
Acetylcholinesterase [1] = target: T1, Acetylcholinesterase (Rattus norvegicus, UniProt P37136); test: Inhibition of rat cortex AChE using acetylthiocholine as substrate incubated for 15 mins by DTNB reagent based Ellman's method; format: tissue-based
T1 sequence (P37136 whole entry): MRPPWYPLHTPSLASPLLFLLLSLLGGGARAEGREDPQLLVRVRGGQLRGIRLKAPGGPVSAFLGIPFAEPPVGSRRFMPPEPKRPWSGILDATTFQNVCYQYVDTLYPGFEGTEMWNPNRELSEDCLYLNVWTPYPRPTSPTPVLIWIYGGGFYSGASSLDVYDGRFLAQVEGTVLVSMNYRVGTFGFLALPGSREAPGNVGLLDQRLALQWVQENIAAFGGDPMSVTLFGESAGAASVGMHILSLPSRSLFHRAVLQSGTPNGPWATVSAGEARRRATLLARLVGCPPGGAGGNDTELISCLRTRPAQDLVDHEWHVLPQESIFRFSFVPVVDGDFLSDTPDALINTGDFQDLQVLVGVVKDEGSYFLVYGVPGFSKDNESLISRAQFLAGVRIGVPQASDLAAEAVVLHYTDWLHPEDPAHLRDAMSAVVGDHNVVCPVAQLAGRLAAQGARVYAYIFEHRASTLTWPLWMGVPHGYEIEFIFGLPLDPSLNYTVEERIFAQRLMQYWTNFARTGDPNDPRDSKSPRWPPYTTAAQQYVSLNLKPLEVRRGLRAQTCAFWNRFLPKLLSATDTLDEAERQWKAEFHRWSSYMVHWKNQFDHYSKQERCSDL

Rattus norvegicus = organism: Rattus norvegicus; test: Selectivity index, ratio of IC50 for inhibition of rat serum butyrylcholine esterase to IC50 for inhibition of rat cortex AChE
Butyrylcholinesterase = Butyrylcholinesterase (Rattus norvegicus, UniProt Q9JKC1); test: Inhibition of rat serum Butyrylcholine esterase using butyrylthiocholine as substrate incubated for 15 mins by DTNB reagent based Ellman's method; format: cell-free
[2] = Antioxidant activity assessed as trolox equivalent of ORAC radical scavenging activity by ORAC-FL assay; format: functional
Homo sapiens = organism: Homo sapiens; test: Selectivity index, ratio of IC50 for inhibition of human serum BuChE to IC50 for inhibition of human erythrocyte AChE
Acetylcholinesterase [3] = target: T2, Acetylcholinesterase (Homo sapiens, UniProt P22303); test: Inhibition of human erythrocyte AChE using acetylthiocholine as substrate incubated for 15 mins by DTNB reagent based Ellman's method; format: cell-based
Cholinesterase = Cholinesterase (Homo sapiens, UniProt P06276); test: Inhibition of human serum BuChE using butyrylthiocholine as substrate incubated for 15 mins by DTNB reagent based Ellman's method; format: cell-free
Acetylcholinesterase [4] = target: T2, Acetylcholinesterase; test: Pseudo-irreversible inhibition of human AChE assessed as restoration of enzyme activity at 0.1 time of IC50 concentration incubated for 120 mins by dilution method relative to control; set-up: scale not given: the % may be the effect or the level left
PC-12 [5] = test: Neuroprotective activity against H2O2-induced cytotoxicity in rat PC-12 cells assessed as increase in cell viability at 100 uM by MTT assay relative to control; format: functional, cell-based
[6] = Effect on tau protein expression in pRK5-GFP-Tau plasmid transfected mouse HT-22 cells assessed as reduction in fluorescence intensity at 5 uM incubated for 24 hrs by fluorescence microscopic analysis (reference value: 36.8); format: functional
[7] = target: Amyloid-beta precursor protein (Homo sapiens) (UniProt P05067); test: Inhibition of amyloid beta (1 to 42) (unknown origin) self-induced fibril formation at 25 uM incubated for 24 hrs by transmission electron microscopic analysis
[8] = Cytotoxicity against mouse HT-22 cells assessed as reduction in cell viability by MTT assay; format: toxicity, cell-based
[9] = target: Amyloid-beta precursor protein (Homo sapiens) (UniProt P05067); test: Inhibition of amyloid beta (1 to 42 ) (unknown origin) self-induced aggregation at 25 uM by thioflavin-T fluorescence method relative to control
[10] = Effect on tau protein expression in pRK5-GFP-Tau P301L plasmid transfected mouse HT-22 cells assessed as reduction in fluorescence intensity at 20 uM by fluorescence microscopic analysis (reference value: 35.0); format: functional
[11] = Effect on tau protein expression in pRK5-GFP-Tau P301L plasmid transfected mouse HT-22 cells assessed as reduction in fluorescence intensity at 10 uM by fluorescence microscopic analysis (reference value: 35.0); format: functional
[12] = Effect on APP protein expression in pEGFP-N1-APP plasmid transfected mouse HT-22 cells assessed as decrease in fluorescence intensity at 10 uM incubated for 24 hrs by fluorescence microscopic analysis (reference value: 30.7); format: functional
PC-12 [13] = test: Neuroprotective activity against H2O2-induced cytotoxicity in rat PC-12 cells assessed as increase in cell viability at 10 uM by MTT assay relative to control; format: functional
[14] = Effect on APP protein expression in pEGFP-N1-APP plasmid transfected mouse HT-22 cells assessed as decrease in fluorescence intensity at 20 uM incubated for 24 hrs by fluorescence microscopic analysis (reference value: 30.7); format: functional
PC-12 [15] = test: Cytotoxicity against rat PC-12 cells assessed as reduction in cell viability measured upto 40 uM incubated for 72 hrs by MTT assay; format: toxicity, cell-based; conditions: pc-12, 72 h
HT-22 [16] = test: Effect on APP protein expression in pEGFP-N1-APP plasmid transfected mouse HT-22 cells assessed as fluorescence intensity by measuring decrease in GFP level incubated for 24 hrs by western blot analysis; format: functional, cell-based; conditions: dose 5-20 µM, DDE = dose-dependent effect
PC-12 [17] = test: Neuroprotective activity against H2O2-induced cytotoxicity in rat PC-12 cells assessed as increase in cell viability at 5 uM by MTT assay relative to control; format: functional
HT-22 [18] = test: Effect on tau protein expression in pRK5-GFP-Tau plasmid transfected mouse HT-22 cells assessed as fluorescence intensity by measuring decrease in GFP level at 5 to 20 uM incubated for 24 hrs by western blot analysis; format: functional, cell-based; conditions: dose 5-20 µM
[19] = Effect on APP protein expression in pEGFP-N1-APP plasmid transfected mouse HT-22 cells assessed as decrease in fluorescence intensity at 5 uM incubated for 24 hrs by fluorescence microscopic analysis (reference value: 30.7); format: functional
[20] = Effect on tau protein expression in pRK5-GFP-Tau plasmid transfected mouse HT-22 cells assessed as reduction in fluorescence intensity at 20 uM incubated for 24 hrs by fluorescence microscopic analysis (reference value: 36.8); format: functional
[21] = Effect on tau protein expression in pRK5-GFP-Tau plasmid transfected mouse HT-22 cells assessed as reduction in fluorescence intensity at 10 uM incubated for 24 hrs by fluorescence microscopic analysis (reference value: 36.8); format: functional
[22] = Effect on tau protein expression in pRK5-GFP-Tau P301L plasmid transfected mouse HT-22 cells assessed as reduction in fluorescence intensity at 5 uM by fluorescence microscopic analysis (reference value: 35.0); format: functional

Cholinesterase, sequence (P06276 whole entry): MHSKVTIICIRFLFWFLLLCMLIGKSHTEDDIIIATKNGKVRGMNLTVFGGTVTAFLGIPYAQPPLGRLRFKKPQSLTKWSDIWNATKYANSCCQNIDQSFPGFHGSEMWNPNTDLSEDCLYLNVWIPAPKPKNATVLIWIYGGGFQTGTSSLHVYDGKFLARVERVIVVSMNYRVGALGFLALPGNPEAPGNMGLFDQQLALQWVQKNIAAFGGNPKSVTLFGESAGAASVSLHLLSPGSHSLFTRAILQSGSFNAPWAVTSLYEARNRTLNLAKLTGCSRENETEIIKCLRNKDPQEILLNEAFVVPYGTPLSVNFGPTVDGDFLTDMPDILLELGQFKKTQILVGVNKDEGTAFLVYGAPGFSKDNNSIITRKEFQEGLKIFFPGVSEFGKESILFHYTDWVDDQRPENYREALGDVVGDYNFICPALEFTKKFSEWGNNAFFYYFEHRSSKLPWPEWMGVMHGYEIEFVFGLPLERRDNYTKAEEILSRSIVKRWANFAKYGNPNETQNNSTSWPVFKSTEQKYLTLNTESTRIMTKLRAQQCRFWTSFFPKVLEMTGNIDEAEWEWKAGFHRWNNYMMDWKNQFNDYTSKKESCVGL
T2 sequence (P22303 whole entry): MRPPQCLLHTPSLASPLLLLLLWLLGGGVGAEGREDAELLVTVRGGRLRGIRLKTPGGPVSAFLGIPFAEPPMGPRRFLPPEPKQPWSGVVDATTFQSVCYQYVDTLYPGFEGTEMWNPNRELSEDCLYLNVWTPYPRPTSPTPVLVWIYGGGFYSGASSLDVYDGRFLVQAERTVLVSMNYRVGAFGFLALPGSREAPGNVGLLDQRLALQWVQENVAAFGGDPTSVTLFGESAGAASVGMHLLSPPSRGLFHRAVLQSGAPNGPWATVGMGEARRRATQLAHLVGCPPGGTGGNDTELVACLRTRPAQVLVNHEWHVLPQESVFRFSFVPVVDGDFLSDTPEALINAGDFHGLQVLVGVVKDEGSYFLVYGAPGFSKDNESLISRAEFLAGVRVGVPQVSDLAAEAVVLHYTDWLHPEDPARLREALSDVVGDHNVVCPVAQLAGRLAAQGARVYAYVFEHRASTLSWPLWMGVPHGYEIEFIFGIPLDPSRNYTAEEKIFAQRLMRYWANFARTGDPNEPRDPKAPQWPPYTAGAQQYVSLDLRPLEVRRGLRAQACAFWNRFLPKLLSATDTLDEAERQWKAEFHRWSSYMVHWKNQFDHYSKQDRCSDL
Butyrylcholinesterase, sequence (Q9JKC1 whole entry): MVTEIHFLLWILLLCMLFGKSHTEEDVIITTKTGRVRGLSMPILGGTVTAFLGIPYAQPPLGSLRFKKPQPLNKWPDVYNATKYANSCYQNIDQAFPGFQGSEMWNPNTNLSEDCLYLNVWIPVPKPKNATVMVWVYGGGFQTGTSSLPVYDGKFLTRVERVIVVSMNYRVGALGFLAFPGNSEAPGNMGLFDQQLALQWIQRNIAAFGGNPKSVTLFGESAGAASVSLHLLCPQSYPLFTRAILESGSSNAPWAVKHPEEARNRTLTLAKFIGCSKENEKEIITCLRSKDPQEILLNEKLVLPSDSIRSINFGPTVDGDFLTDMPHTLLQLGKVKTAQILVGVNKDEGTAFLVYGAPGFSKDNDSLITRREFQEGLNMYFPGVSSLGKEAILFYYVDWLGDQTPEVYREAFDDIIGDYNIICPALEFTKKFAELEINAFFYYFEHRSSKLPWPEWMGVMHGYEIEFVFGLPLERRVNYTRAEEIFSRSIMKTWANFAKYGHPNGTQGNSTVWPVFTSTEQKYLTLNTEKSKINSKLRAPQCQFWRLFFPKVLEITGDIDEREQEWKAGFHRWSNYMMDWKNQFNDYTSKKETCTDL
Amyloid-beta precursor protein (Homo sapiens), sequence (P05067 whole entry): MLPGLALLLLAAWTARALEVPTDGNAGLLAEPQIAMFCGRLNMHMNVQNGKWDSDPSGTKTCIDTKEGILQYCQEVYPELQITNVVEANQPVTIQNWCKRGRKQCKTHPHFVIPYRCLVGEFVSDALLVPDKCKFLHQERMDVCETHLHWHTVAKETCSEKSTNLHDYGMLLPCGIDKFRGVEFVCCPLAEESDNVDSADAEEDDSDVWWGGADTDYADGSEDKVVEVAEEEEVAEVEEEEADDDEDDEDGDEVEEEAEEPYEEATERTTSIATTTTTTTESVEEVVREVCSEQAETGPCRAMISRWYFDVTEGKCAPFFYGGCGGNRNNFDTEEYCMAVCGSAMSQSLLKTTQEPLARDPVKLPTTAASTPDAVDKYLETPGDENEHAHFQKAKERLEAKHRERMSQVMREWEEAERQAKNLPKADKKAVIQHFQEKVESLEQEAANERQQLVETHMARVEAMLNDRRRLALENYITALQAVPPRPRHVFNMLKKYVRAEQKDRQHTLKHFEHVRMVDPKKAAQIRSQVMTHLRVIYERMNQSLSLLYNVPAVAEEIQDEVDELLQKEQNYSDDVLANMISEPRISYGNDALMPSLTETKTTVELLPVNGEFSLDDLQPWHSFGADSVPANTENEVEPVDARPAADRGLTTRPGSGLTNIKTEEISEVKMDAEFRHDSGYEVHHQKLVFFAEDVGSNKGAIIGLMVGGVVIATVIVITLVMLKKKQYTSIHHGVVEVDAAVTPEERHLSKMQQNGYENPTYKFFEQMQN

Row | Compound | IC50 (Acetylcholinesterase [1]) [µM] | Ratio IC50 (Rattus norvegicus) | IC50 (Butyrylcholinesterase) [µM] | Activity [2] | further results
1 | CCN(C)C(=O)Oc1ccc(-c2coc3cc(OC(=O)N(C)CC)cc(OC(=O)N(C)CC)c3c2=O)cc1 | 8.7 | 1.9 | 16.9 | 0.3 | –
2 | CON(C)C(=O)Oc1ccc(-c2cc(=O)c3c(O)cc(OC(=O)N(C)OC)cc3o2)cc1 | 9.3 | 2.1 | 19.7 | 1.1 | –
3 | CCN(C)C(=O)Oc1ccc(-c2coc3cc(OC(=O)N(C)CC)cc(O)c3c2=O)cc1 | 11.2 | 2.6 | 29.3 | 1.2 | –
4 | O=C1CC(c2ccc(OC(=O)N(c3ccccc3)c3ccccc3)cc2)Oc2cc(OC(=O)N(c3ccccc3)c3ccccc3)cc(O)c21 (stereo not given) | 18.2 | 1.4 | 25.2 | 1.1 | –
5 | CCN(C)C(=O)Oc1ccc(-c2cc(=O)c3c(OC(=O)N(C)CC)cc(OC(=O)N(C)CC)cc3o2)cc1 | 6.9 | 2.1 | 14.3 | 0.2 | Ratio IC50 (Homo sapiens): 1.7; IC50 (Acetylcholinesterase [3]): 12.3 µM; IC50 (Cholinesterase): 20.6 µM
6 | CON(C)C(=O)Oc1ccc(C2CC(=O)c3c(O)cc(OC(=O)N(C)OC)cc3O2)cc1 (stereo not given) | 9.9 | 1.8 | 18.1 | 1.2 | –
7 | CCN(CC)C(=O)Oc1cc(O)c2c(c1)OC(c1ccc(O)cc1)CC2=O (stereo not given) | 15.1 | 1.8 | 26.7 | 2.5 | –
8 | CCN(C)C(=O)Oc1cccc([C@H](C)N(C)C)c1 | – | – | – | – | Activity (Acetylcholinesterase [4]): 76.3%
9 | O=C1CC(c2ccc(OC(=O)N3CCOCC3)cc2)Oc2cc(OC(=O)N3CCOCC3)cc(O)c21 (stereo not given) | 11.3 | 2.1 | 23.6 | 1 | –
10 | CCN(CC)C(=O)Oc1ccc(C2CC(=O)c3c(O)cc(OC(=O)N(CC)CC)cc3O2)cc1 (stereo not given) | 10.7 | 2.1 | 22.4 | 1.1 | –
11 | O=c1cc(-c2ccc(O)cc2)oc2cc(O)cc(O)c12 [APIGENIN] | > 50 | – | > 50 | 5.5 | –
12 | CON(C)C(=O)Oc1ccc(-c2coc3cc(OC(=O)N(C)OC)cc(O)c3c2=O)cc1 | 13.5 | 2 | 27.1 | 1 | –
13 | O=C1CC(c2ccc(OC(=O)N3CCCC3)cc2)Oc2cc(OC(=O)N3CCCC3)cc(O)c21 (stereo not given) | 14.5 | 1.4 | 19.8 | 1.1 | –
14 | O=C1CC(c2ccc(O)cc2)Oc2cc(O)cc(O)c21 (stereo not given) | > 50 | – | > 50 | 5.1 | –
15 | O=c1c(-c2ccc(O)cc2)coc2cc(O)cc(O)c12 [GENISTEIN] | > 50 | – | > 50 | 6.2 | –
16 | VITAMIN E | – | – | – | – | Activity (PC-12 [5]): 67.3%
17 | CCN(C)C(=O)Oc1cc(O)c2c(c1)OC(c1ccc(O)cc1)CC2=O (stereo not given) | 11.6 | 2.4 | 28.2 | 2.7 | –
18 | CCN(C)C(=O)Oc1ccc(-c2cc(=O)c3c(O)cc(OC(=O)N(C)CC)cc3o2)cc1 | 5.7 | 2.7 | 15.6 | 1.3 | Ratio IC50 (Homo sapiens): 2.4; IC50 (Acetylcholinesterase [3]): 7.9 µM; IC50 (Cholinesterase): 18.7 µM
19 | CCN(C)C(=O)Oc1ccc(C2CC(=O)c3c(OC(=O)N(C)CC)cc(OC(=O)N(C)CC)cc3O2)cc1 (stereo not given) | 6.7 | – | 20.2 | 0.2 | Flu intensity [6]: 23.7; inhibition [7]: Active; IC50 [8]: 215 µM; inhibition [9]: 42.1%; Flu intensity [10]: 16; Flu intensity [11]: 17.6; Flu intensity [12]: 22.1; Activity (PC-12 [13]): 64.1%; IC50 (Acetylcholinesterase [3]): 10.6 µM; Flu intensity [14]: 20.7; Activity (PC-12 [15]): Non-Toxic; Activity (HT-22 [16]): Dde; Activity (PC-12 [17]): 59.3%; IC50 (Cholinesterase): 24.5 µM; Activity (HT-22 [18]): Active; Flu intensity [19]: 22.3; Flu intensity [20]: 6.48; Flu intensity [21]: 20.7; Activity (Acetylcholinesterase [4]): 75.9%; Flu intensity [22]: 18.7
20 | CN(C)C(=O)Oc1ccc(C2CC(=O)c3c(O)cc(OC(=O)N(C)C)cc3O2)cc1 (stereo not given) | 14.2 | – | 26.5 | 0.9 | –
